Here are results for two compounds from patent US9023789B2, “Amylin analogs and pharmaceutical compositions thereof” (Novo Nordisk A/S, priority 2012, dated 2015).

For assay [1], the target named is T1, human amylin 3(a) receptor (human calcitonin receptor + RAMP-3) in BHK570 cells (Homo sapiens, UniProt O60896+P30988).
T1 construct: expressed in transfected cells
Nature of the assay: ASSAY (II)a functional assay, human amylin receptor (CRE luciferase). The format is cell-based. The following applies: for EC50: human amylin receptor functional potency, assay (II), read-out: hAmylin-R funct. EC50. The method, boiled down:
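Cells were seeded and cultured overnight, then incubated with standard or sample for 3 h at 37° C in serum-containing medium at pH 7.4. The medium was then swapped for PBS, LucLite was added for 30 min at room temperature, and luminescence was recorded. Cells were BHK with CRE-luc and calcitonin receptor, ± RAMP-3.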

Assay [2] addresses T2, human calcitonin (a) receptor in BHK570 cells (Homo sapiens, UniProt P30988).
T2 construct: expressed in transfected cells
T2 sequence (P30988 25-474): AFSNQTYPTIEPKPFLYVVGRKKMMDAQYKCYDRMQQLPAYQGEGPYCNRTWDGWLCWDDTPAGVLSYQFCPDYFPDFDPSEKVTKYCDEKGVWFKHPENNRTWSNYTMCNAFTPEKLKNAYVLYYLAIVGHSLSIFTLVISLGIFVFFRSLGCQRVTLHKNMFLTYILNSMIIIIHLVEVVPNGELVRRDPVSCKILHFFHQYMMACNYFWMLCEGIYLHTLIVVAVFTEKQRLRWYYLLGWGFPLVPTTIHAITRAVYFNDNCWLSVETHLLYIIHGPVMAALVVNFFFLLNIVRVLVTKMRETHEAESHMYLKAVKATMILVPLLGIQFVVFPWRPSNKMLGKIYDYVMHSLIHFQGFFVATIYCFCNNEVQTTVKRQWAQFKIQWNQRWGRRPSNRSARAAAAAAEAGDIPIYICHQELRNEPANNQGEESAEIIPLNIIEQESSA
In words: ASSAY (II)a functional assay, human calcitonin receptor (CRE luciferase). Type of assay: cell-based. The following applies: read-out: hCTR funct. EC50. The text has this: 1. Luciferase Assay Outline
Activation of calcitonin and amylin (coexpression of calcitonin receptor and receptor activity modifying proteins (RAMP)) receptors lead to increased intracellular concentrations of cAMP. Consequently, transcription is activated by promoters containing multiple copies of the cAMP response element (CRE). It is thus possible to measure amylin activity by the use of a CRE luciferase reporter gene introduced into BHK cells also expressing calcitonin or amylin receptors.
2. Construction of Calcitonin (a)- and Amylin 3(a)-Receptor/CRE-Luc Cell Line.
The cell line was further transfected with RAMP-3, using standard methods. This turns the calcitonin receptor into an amylin 3(a) receptor. Methotrexate, Neomycin, and Hygromycin are selection markers for luciferase, the calcitonin receptor, and RAMP-3, respectively.
To perform activity assays, BHK calcitonin (a) receptor- or amylin 3(a)-receptor/CRE-luc cells were seeded in white 96 well culture plates at a density of about 20.000 cells/well. […] After incubation overnight at 37° C. and 5% CO2, the growth medium was replaced by 50 μl/well assay medium (DMEM (without phenol red), Glutamax™, 10% FBS, and 10 mM Hepes, pH 7.4). Further, 50 μl/well of standard or sample in assay buffer were added. After 3 hours incubation at 37° C. and 5% CO2, the assay medium with standard or sample were removed and replaced by 100 μl/well PBS. Further, 100 μl/well LucLite™ was added. The plates were sealed and incubated at room temperature for 30 minutes. Finally, luminescence was measured on a TopCounter (Packard) in SPC (single photon counting) mode.

Assay [3] concerns the target T3, human amylin receptor (membranes from Amylin 3(a)/CRE-luc cells) (Homo sapiens, UniProt O60896+P30988).
T3 construct: expressed in transfected cells
T3 sequence (P30988 25-474): T2 sequence (P30988 25-474)
T3 sequence (O60896 24-148 partner): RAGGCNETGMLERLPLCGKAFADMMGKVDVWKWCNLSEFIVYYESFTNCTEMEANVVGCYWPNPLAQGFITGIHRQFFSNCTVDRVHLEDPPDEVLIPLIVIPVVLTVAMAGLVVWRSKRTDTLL
Nature of the assay: ASSAY (V) binding to the human amylin receptor (SPA, 125I-rat amylin).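 On all read-outs here: competition binding of cell membranes (35 ng/µL) mixed with SPA beads in 384-well plates at 40 µL total volume, read by scintillation counting.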 The following applies: for IC50: Table 4, read-out: hAmylin-R bind IC50.

The target of assay [4] is T4, rat amylin receptor (rat calcitonin receptor + rat RAMP 3) (Rattus norvegicus, UniProt P32214+Q9JJ73).
T4 construct: expressed in transfected cells; host or cells: BHK tk'ts 13 (transient, FuGENE 6), membranes
T4 sequence (P32214 25-479 isoform P32214-2 limits assumed): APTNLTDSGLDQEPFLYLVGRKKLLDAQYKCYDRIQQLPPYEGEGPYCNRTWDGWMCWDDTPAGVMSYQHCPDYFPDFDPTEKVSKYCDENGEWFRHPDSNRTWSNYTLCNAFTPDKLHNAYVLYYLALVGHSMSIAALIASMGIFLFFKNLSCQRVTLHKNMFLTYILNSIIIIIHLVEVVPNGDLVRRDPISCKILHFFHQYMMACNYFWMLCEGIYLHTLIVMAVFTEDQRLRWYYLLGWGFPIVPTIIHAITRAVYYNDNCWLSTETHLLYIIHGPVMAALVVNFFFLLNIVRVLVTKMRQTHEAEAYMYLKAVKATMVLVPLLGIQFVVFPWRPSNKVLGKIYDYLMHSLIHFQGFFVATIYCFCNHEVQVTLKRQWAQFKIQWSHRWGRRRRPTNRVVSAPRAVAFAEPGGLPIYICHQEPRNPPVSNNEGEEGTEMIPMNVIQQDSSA
T4 sequence (Q9JJ73 23-147 partner): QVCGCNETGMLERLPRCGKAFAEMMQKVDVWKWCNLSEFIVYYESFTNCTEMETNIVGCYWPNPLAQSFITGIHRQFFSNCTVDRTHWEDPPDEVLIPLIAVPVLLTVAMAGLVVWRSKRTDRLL
In words: ASSAY (VI) binding to the rat amylin receptor. The following applies: for IC50: binding to rat amylin receptor, read-out: rAmylin-R bind IC50. Summed up:
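Binding to the rat amylin receptor was determined with membrane preparations. The receptor was expressed by transiently transfecting BHK tk′ts 13 cells with rat calcitonin receptor, using FuGENE® 6 (Roche) according to the manufacturer's recommendations. Roughly 48 hours later the cells were harvested and their membranes isolated.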

The target of assay [5] is T5, human calcitonin receptor (Homo sapiens, UniProt P30988).
T5 construct: expressed in transfected cells
T5 sequence (P30988 25-474): T2 sequence (P30988 25-474)
In words: ASSAY (VII) binding to the human calcitonin receptor (SPA, 125I-Calcitonin).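 Further: cell membranes (35 ng/µL) combined with SPA beads in 40 µL of pH 7.4 Hepes buffer, 384-well format, signal counted on a TopCounter instrument.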 The following applies: read-out: hCTR bind IC50.

For a further assay, the target named is T6, rat calcitonin receptor (Rattus norvegicus, UniProt P32214).
T6 construct: expressed in transfected cells; host or cells: BHK tk'ts 13 (transient, FuGENE 6), membranes
T6 sequence (P32214 25-479 isoform P32214-2 limits assumed): T4 sequence (P32214 25-479 isoform P32214-2 limits assumed)
In words: ASSAY (VIII) binding to the rat calcitonin receptor. The following applies: Table 7, read-out: rCTR bind IC50. As to the method:
Assay (VIII)—Determination of Binding to the Rat Calcitonin Receptor
The BHK tk′ts 13 cells were transiently transfected with rat calcitonin receptor using FuGENE® 6 (Roche), according to the manufacturer's recommendations. Cells were grown in DMEM with 10% FBS and 1% Pen/Strep. Approximately 48 hours after transfection, the cells were harvested and membranes were prepared.

Where [6] appears, read: hCTR funct. EC50 over hAmylin-R funct. EC50.
Setting [7] is: human functional selectivity: hCTR funct. EC50 / hAmylin-R funct. EC50.
Where [8] appears, read: Table 5, selectivity, hCTR bind IC50 / hAmylin-R bind IC50.
Setting [9] is: Table 5a, selectivity, hCTR bind IC50 / hAmylin-R bind IC50.
The mark [10] stands for this setting: Table 5b, selectivity, hCTR bind IC50 / hAmylin-R bind IC50.
Setting [11] is: Table 7, human binding selectivity, included for comparison.
[12] abbreviates: Table 7a (preferred compounds), human binding selectivity, included for comparison.
Setting [13] is: ratio of human calcitonin receptor binding IC50 to human amylin receptor binding IC50.
Setting [14] is: Table 7, rat binding selectivity, rCTR IC50 / rAmylin-R IC50.
Setting [15] is: Table 7a (preferred compounds), rat binding selectivity, rCTR IC50 / rAmylin-R IC50.
Where [16] appears, read: ratio of rCTR bind IC50 to rAmylin-R bind IC50.

Numbered stars: 1 amine (or outer) side, 2 acyl side, 3 side chain; on linkers, the order of the positions; unused ones are H or OH. Bridge positions count the residues as written; N and C are the ends. Peptide text beside a SMILES is read from it. * marks the point of attachment. C20 diacid = O=C(O)CCCCCCCCCCCCCCCCCCC(=O)*; γGlu = O=C(O)[C@H](CCC(=O)[*:2])N[*:1]

What is called EC50 is the concentration needed to bring the measured effect to its halfway point. Usually IC50 stands for the point on the concentration scale where inhibition reaches its midpoint.

Turning to `CC(C)C[C@H](NC(=O)[C@H](CCCNC(=N)N)NC(=O)[C@H](CCC(N)=O)NC(=O)[C@@H](NC(=O)[C@H](C)NC(=O)[C@@H]1CSSC[C@H](NC(=O)[C@H](CCCCN)NC(=O)CC[C@H](NC(=O)CCCCCCCCCCCCCCCCCCC(=O)O)C(=O)O)C(=O)N[C@@H](CC(N)=O)C(=O)N[C@@H]([C@@H](C)O)C(=O)N[C@@H](C)C(=O)N[C@@H]([C@@H](C)O)C(=O)N1)[C@@H](C)O)C(=O)N[C@@H](C)C(=O)N[C@@H](CCC(=O)O)C(=O)N[C@@H](Cc1ccccc1)C(=O)N[C@@H](CC(C)C)C(=O)N[C@@H](CCCNC(=N)N)C(=O)N[C@@H](Cc1c[nH]cn1)C(=O)N[C@@H](CO)C(=O)N[C@@H](CO)C(=O)N1CCC[C@H]1C(=O)N[C@@H](CC(N)=O)C(=O)N[C@@H](Cc1ccccc1)C(=O)NCC(=O)N[C@@H](C)C(=O)N1CCC[C@H]1C(=O)N[C@@H](CC(C)C)C(=O)N[C@@H](CO)C(=O)N[C@@H](CO)C(=O)N[C@H](C(=O)N[C@@H](CC(N)=O)C(=O)N[C@H](C(=O)NCC(=O)N[C@@H](CO)C(=O)N[C@@H](CC(N)=O)C(=O)N[C@H](C(=O)N[C@@H](Cc1ccc(O)cc1)C(N)=O)[C@@H](C)O)C(C)C)[C@@H](C)O` [Example 7] ({C20 diacid-γGlu}-KCNTATCATQRLAEFLRHSSPNFGAPLSSTNVGSNTY-NH2; disulfide 2-7), the “Ratio hCT/hAmylin funct.” value in assay [1] (setting [6]) and in assay [1] (setting [7]) was 4.5 each time. For the same compound, the EC50 is 0.255 nM in assay [1] and 1.16 nM in assay [2]. Besides, the IC50 stood at 0.674 nM in assay [3], 1.12 nM in assay [4] (Table 7), 11.1 nM in assay [5] and 47.2 nM at rat calcitonin receptor. Also, the “Ratio hCT/hAmylin binding” value in assay [3] (setting [8]), in assay [3] (setting [9]), in assay [3] (setting [10]), in assay [3] (setting [11]), in assay [3] (setting [12]) and in assay [3] (setting [13]) was 16.5 each time. Moreover, the “Ratio rCT/rAmylin binding” value in assay [4] (setting [14]), in assay [4] (setting [15]) and in assay [4] (setting [16]) was 42.0 each time.
For the compound `CC[C@H](C)[C@H](NC(=O)[C@@H]1CCCN1C(=O)CNC(=O)[C@H](Cc1ccccc1)NC(=O)[C@H](CC(N)=O)NC(=O)[C@@H]1CCCN1C(=O)[C@H](CO)NC(=O)[C@H](CO)NC(=O)[C@H](Cc1c[nH]cn1)NC(=O)[C@H](CCCNC(=N)N)NC(=O)[C@H](CC(C)C)NC(=O)[C@H](Cc1ccccc1)NC(=O)[C@H](CCC(=O)O)NC(=O)[C@H](C)NC(=O)[C@H](CC(C)C)NC(=O)[C@H](CCCNC(=N)N)NC(=O)[C@H](CCC(N)=O)NC(=O)[C@@H](NC(=O)[C@H](C)NC(=O)[C@@H]1CSSC[C@H](NC(=O)[C@H](CCCCN)NC(=O)CC[C@H](NC(=O)CCCCCCCCCCCCCCCCCCC(=O)O)C(=O)O)C(=O)N[C@@H](CC(N)=O)C(=O)N[C@@H]([C@@H](C)O)C(=O)N[C@@H](C)C(=O)N[C@@H]([C@@H](C)O)C(=O)N1)[C@@H](C)O)C(=O)N[C@@H](CC(C)C)C(=O)N1CCC[C@H]1C(=O)N1CCC[C@H]1C(=O)N[C@H](C(=O)N[C@@H](CC(N)=O)C(=O)N[C@H](C(=O)NCC(=O)N[C@@H](CO)C(=O)N[C@@H](CC(N)=O)C(=O)N[C@H](C(=O)N[C@@H](Cc1ccc(O)cc1)C(N)=O)[C@@H](C)O)C(C)C)[C@@H](C)O` [Example 6] ({C20 diacid-γGlu}-KCNTATCATQRLAEFLRHSSPNFGPILPPTNVGSNTY-NH2; disulfide 2-7), the “Ratio hCT/hAmylin funct.” value in assay [1] (setting [6]) and in assay [1] (setting [7]) was 5.7 throughout. For the same compound, the results for the EC50 in assay [1] and in assay [2] were 0.128 nM and 0.729 nM, respectively. For the same compound, the IC50 in assay [3] is 0.996 nM; in assay [4] (Table 7), 2.37 nM; in assay [5], 19.9 nM; on rat calcitonin receptor it was 51.6 nM. For the same compound, the “Ratio hCT/hAmylin binding” value is given as 20.0 in assay [3] (setting [8]); 20.0 in assay [3] (setting [9]); 20.0 in assay [3] (setting [10]); 20.0 in assay [3] (Table 5c, selectivity, hCTR bind IC50 / hAmylin-R bind IC50); 20.0 in assay [3] (setting [11]); 20.0 in assay [3] (setting [12]). In addition, the “Ratio hCT/hAmylin binding” value in assay [3] (setting [13]) worked out at 20.0. Also, the “Ratio rCT/rAmylin binding” value in assay [4] (setting [14]), in assay [4] (setting [15]) and in assay [4] (setting [16]) was 21.7 in each case.
